For one data set, the target named is T1, IKAROS (Homo sapiens, UniProt Q13422+Q96SW2).
T1 construct: Whole cell extracts were prepared using a radioimmunoprecipitation assay (RIPA) buffer; endogenous in cells; host or cells: MV-4-11
The experiment in a line: Protein degradation assay (Western blot) in MV-4-11 cells: IKAROS. It counts as cell-based. The conditions noted are these: 6-8 h, compound concentration 0.1 μM. Here is the method: (§1) MV-4-11 cells were grown in RPMI 1640 media supplemented with 10% fetal bovine serum, streptomycin, and penicillin. The cells were cultured at approximately 10^6 cells per mL and incubated in DMSO or a compound for 6-8 h. Whole cell extracts were prepared using a radioimmunoprecipitation assay (RIPA) buffer. Briefly, 3×10^6 cells were washed once in PBS, and the cell pellets were resuspended in the RIPA buffer and incubated for 15 min on ice. Cells debris was removed by centrifugation and the cleared whole cell lysates were transferred to new tubes for further analysis.
(§2) For Western blot analysis, whole cell protein extracts were separated on 4-12% SDS-polyacrylamide gels, transferred to nitrocellulose, and probed with primary antibodies. Membranes were subsequently washed and probed with IRDYE® secondary antibodies. The signal was detected using an ODYSSEY® Imaging System.
(§3) The following antibodies were used in the assays described herein: anti-eRF3/GSPT1: Abcam, ab126090 (Cambridge, Mass.); anti-Ikaros: Abcam, ab191394 (Cambridge, Mass.); anti-CK1α: Abcam, ab108296 (Cambridge, Mass.); β-actin (8H10D10) mouse monoclonal antibody: Cell Signaling Technology, #3700 (Danvers, Mass.); IRDYE® 680RD goat anti-rabbit antibody: LI-COR, 926-68071 (Lincoln, Nebr.); and IRDYE® 800CW goat anti-mouse antibody: LI-COR, 926-32210 (Lincoln, Nebr.).
(§4) The protein degradation results are summarized in Table 1, wherein A represents a value no less than 80%, B represents a value less than 80% but no less than 50%, C represents a value less than 50% but no less than 25%, and D represents a value less than 25% protein degradation at a compound concentration of 0.1 μM.
Background: A western blot detects proteins with antibodies after separation by electrophoresis.

Another data set addresses T2, CK1α (Homo sapiens, UniProt P48729+Q96SW2).
T2 construct: Whole cell extracts were prepared using a radioimmunoprecipitation assay (RIPA) buffer; endogenous in cells; host or cells: MV-4-11
The experiment in a line: Protein degradation assay (Western blot) in MV-4-11 cells: CK1α. In kind it is cell-based. The conditions noted are these: 6-8 h, compound concentration 0.1 μM. The method, then: as §1, §2, §3, §4

In the next data set the target is T3, GSPT1 (Homo sapiens, UniProt P15170+Q96SW2).
T3 construct: Whole cell extracts were prepared using a radioimmunoprecipitation assay (RIPA) buffer; endogenous in cells; host or cells: MV-4-11
T3 sequence (P15170 whole entry): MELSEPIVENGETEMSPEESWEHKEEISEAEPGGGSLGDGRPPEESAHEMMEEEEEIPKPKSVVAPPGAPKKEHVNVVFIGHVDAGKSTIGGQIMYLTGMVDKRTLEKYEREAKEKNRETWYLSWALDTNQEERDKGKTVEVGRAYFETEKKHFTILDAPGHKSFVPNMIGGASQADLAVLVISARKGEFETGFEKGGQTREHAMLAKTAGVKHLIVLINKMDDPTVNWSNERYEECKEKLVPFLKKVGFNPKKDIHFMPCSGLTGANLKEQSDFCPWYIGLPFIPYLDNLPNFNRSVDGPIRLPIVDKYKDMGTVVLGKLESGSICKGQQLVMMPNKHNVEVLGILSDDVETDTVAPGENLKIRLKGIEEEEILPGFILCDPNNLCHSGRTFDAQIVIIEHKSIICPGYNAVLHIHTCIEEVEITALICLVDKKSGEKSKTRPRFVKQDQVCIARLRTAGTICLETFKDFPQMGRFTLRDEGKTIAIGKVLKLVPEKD
T3 sequence (Q96SW2 whole entry): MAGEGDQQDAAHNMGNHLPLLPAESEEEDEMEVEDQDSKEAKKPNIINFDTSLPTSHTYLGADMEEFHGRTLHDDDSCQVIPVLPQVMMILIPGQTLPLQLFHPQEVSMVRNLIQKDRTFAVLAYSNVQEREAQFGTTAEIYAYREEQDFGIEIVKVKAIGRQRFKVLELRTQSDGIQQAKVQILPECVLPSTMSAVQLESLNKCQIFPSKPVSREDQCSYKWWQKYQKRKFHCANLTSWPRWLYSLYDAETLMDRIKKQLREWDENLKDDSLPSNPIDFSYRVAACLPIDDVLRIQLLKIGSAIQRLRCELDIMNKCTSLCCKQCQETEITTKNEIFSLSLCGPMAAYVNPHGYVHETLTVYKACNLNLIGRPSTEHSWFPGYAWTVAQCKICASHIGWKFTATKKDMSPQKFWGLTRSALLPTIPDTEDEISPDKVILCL
T3 sequence (Q16531 whole entry partner): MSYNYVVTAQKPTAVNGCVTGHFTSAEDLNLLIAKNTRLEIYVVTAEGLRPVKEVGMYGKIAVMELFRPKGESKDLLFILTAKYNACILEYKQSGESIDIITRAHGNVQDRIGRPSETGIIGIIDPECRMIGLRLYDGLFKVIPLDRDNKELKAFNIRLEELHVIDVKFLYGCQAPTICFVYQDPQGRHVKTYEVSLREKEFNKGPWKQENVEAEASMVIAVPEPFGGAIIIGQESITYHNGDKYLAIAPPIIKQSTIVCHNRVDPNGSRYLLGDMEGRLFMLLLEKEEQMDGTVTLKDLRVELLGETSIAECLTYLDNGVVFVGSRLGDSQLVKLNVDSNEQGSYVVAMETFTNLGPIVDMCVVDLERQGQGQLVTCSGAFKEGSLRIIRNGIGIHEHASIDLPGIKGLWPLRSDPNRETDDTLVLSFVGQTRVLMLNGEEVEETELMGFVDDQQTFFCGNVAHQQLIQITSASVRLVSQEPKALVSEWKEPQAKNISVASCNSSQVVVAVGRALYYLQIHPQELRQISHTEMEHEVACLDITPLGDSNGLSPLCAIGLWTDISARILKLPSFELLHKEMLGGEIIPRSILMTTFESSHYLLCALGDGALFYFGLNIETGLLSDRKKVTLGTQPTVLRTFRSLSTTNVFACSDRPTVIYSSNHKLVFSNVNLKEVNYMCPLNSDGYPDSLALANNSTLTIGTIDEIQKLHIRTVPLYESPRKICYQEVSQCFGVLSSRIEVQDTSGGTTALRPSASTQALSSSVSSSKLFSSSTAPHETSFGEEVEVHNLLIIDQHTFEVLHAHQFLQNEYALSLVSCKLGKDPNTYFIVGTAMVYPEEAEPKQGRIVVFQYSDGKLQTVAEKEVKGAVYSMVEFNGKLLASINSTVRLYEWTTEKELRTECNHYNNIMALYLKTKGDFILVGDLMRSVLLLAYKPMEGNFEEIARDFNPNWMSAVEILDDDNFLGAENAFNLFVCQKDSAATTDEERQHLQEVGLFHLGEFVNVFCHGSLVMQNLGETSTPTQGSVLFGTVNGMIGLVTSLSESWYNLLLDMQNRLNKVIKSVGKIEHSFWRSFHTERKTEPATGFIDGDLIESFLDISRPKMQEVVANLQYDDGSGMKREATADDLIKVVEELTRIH
The experiment in a line: Protein degradation assay (Western blot) in MV-4-11 cells: GSPT1. It counts as cell-based. The following applies: 6-8 h, compound concentration 0.1 μM. The method, then:
as §1, §2, §3, §4

The next data set relates to IL-1β. The experiment in a line: Cytokine modulation assay, LPS-induced PBMCs or CD14+ monocytes: IL-1β. It counts as cell-based. The conditions noted are these: 100 ng/mL LPS 18-24 h; for inhibition at 0.1 µM: 0.1 μM compound; for inhibition at 1 µM: 1 μM compound. The method, then: (§5) Frozen primary blood mononuclear cells (PBMCs) or frozen CD14+ mobilized peripheral blood monocytes were quick thawed, washed once with RPMI-1640 (10% FBS/1% Pen-Strep), and plated in 96 well plates at 200,000 cells per well. The cells were pretreated with DMSO only or with a compound for 1 h and then induced with 100 ng/mL lipopolysaccharide (LPS) for 18-24 h. The supernatant was analyzed for IL-1β, IL-6, and TNFα using Meso Scale assays. The negative control wells were treated with DMSO.

The test system of the next data set is IL-6. The experiment in a line: Cytokine modulation assay, LPS-induced PBMCs or CD14+ monocytes: IL-6. In kind it is cell-based. The conditions noted are these: 0.1 μM compound, 100 ng/mL LPS 18-24 h. The method, then:
as §5

A further data set deals with TNF-α. The experiment in a line: Cytokine modulation assay, LPS-induced PBMCs or CD14+ monocytes: TNFα. In kind it is cell-based. The conditions noted are these: 100 ng/mL LPS 18-24 h; for inhibition at 0.1 µM: 0.1 μM compound; for inhibition at 1 µM: 1 μM compound. The method, then:
as §5

The subject of a further data set is IL-2. The data set is described as follows: IL-2 analysis in anti-CD3 stimulated PBMCs. It counts as cell-based, human. The following applies: 0.01 μM compound, PBMCs on anti-CD3 coated plates, 24 h. Here is the method:
For the IL-2 analysis, 96 well plates were precoated with 1 μg/mL anti-human CD3 antibody (OKT3, eBioscience Inc., San Diego, Calif.). After washed with PBS, the compound was added (50 μL/well), followed by addition of PBMCs diluted at 3-4 million cells/mL (150 μL/well). The plates were incubated for 24 h and the supernatants were collected for IL-2 analysis. IL-2 activity was measured as fold difference from the DMSO control. At a concentration of 0.01 μM, compounds I-1 and I-3 stimulated IL-2 production with 3.7 and 3.9 fold change, respectively, over the DMSO control.

The next data set deals with MOLM-13 cells. The data set is described as follows: MOLM-13 cell viability assay (CellTiter-Glo). In kind it is cell-based. The following applies: 3 days, concentration of 1 μM; for cytotoxicity at 1 µM: Homo sapiens, MOLM-13, 72 h, read-out: Antiproliferative Activity (inhibition, MOLM-13 cell viability). An outline of the steps: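 Luminescent ATP read-out (CellTiter-Glo, 10 min with shaking) after 3-day compound or DMSO exposure at 37° C, 5% CO2. Cells plated at 2,500/well in RPMI 1640 plus 10% FBS.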
On the technique in general: Cellular ATP, detected with luciferase, serves as a proxy for viable cell number.

The test system of a further data set is THLE-2 cells. The data set is described as follows: THLE-2 cell viability assay (CellTiter-Glo). It counts as cell-based. The following applies: Homo sapiens, 72 h, 3 days. The method, then: THLE-2 cells were cultured using BEGM™ BULLETKIT™ supplemented with 10% fetal bovine serum, streptomycin, and penicillin. The cells were plated in white walled 96-well plates at 5,000 cells/well. After the cells were incubated in DMSO (control) or a compound for 3 days at 37° C. and 5% CO2, 100 μL of CELLTITER-GLO® (CTG) was added to each well. Following a 10 minutes incubation with shaking, luminescence was measured using an ENVISION® Multimode plate reader. In this example, compound II-1 was compared to reference compound A: […]

T2 sequence (P48729 whole entry): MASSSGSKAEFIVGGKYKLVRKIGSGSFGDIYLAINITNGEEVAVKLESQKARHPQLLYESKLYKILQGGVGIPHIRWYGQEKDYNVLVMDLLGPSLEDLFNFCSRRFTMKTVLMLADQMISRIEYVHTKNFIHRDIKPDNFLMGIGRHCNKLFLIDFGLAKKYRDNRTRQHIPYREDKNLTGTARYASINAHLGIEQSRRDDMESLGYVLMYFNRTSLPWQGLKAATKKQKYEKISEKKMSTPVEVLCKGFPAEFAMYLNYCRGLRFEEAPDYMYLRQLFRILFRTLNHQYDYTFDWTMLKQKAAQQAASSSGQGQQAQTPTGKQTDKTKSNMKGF
T2 sequence (Q96SW2 whole entry): as the sequence (Q96SW2 whole entry) above
T2 sequence (Q16531 whole entry partner): as the sequence (Q16531 whole entry partner) above
T1 sequence (Q13422 whole entry): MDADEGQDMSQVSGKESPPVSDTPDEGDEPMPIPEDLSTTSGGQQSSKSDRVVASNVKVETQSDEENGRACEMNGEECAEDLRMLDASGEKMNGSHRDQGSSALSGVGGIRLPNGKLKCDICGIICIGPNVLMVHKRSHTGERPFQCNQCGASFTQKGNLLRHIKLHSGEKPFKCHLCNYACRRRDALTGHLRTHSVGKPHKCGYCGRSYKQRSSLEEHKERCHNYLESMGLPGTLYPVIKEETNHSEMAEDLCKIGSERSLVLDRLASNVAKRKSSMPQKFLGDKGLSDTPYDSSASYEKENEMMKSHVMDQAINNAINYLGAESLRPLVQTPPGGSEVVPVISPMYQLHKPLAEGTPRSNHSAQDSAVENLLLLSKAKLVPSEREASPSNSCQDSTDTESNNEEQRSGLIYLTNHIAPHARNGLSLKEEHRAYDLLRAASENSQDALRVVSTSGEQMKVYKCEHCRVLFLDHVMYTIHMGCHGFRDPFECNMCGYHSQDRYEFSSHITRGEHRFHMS
T1 sequence (Q96SW2 whole entry): as the sequence (Q96SW2 whole entry) above
T1 sequence (Q16531 whole entry partner): as the sequence (Q16531 whole entry partner) above

For `CC(C)(C)c1ccc(C(=O)C(=O)NCc2scc3c2CN(C2CCC(=O)NC2=O)C3=O)cc1` (stereo not shown) [Compound I-1, 2-(4-(tert-butyl)phenyl)-N-((5-(2,6-dioxopiperidin-3-yl)-4-oxo-5,6-dihydro-4H-thieno[3,4-c]pyrrol-1-yl)methyl)-2-oxoacetamide], on IKAROS, the “Protein Degradation IKAROS” value was “A (a value no less than 80%)”. For the same molecule, the “Protein Degradation CK1α” value on CK1α is “B (a value less than 80% but no less than 50%)”. Also, the “Protein Degradation GSPT1” value at GSPT1 is “B (a value less than 80% but no less than 50%)”. In addition, the inhibition (in general, the percentage by which the read-out fell short of the control) at 0.1 µM in the data set on IL-1β is above 80%; with IL-6, 50 to 80%; in the data set on TNF-α it was above 80%. In addition, the “IL-2 production, fold change over the DMSO control” value in the data set with IL-2 stood at 3.7 fold. The “Antiproliferative Activity (inhibition, MOLM-13 cell viability)” value with MOLM-13 cells is reported as “A (a value no less than 80%)”.
As to `CC(C)(C)c1ccc(C(=O)C(=O)NCc2ccc3c(c2)CN(C2CCC(=O)NC2=O)C3=O)cc1` (stereo not shown) [Compound I-2, 2-(4-(tert-butyl)phenyl)-N-((2-(2,6-dioxopiperidin-3-yl)-1-oxoisoindolin-5-yl)methyl)-2-oxoacetamide], the “Protein Degradation IKAROS” value on IKAROS is on record as “A (a value no less than 80%)”. Moreover, the “Protein Degradation CK1α” value on CK1α was “B (a value less than 80% but no less than 50%)”. The “Protein Degradation GSPT1” value at GSPT1 is “A (a value no less than 80%)”. The cytotoxicity at 1 µM with MOLM-13 cells was above 80%.
Consider `O=C1CCC(N2Cc3c(csc3CNC(=O)C(=O)c3ccc(C4(C(F)(F)F)CC4)cc3)C2=O)C(=O)N1` (stereo not shown) [Compound I-3, N-((5-(2,6-dioxopiperidin-3-yl)-4-oxo-5,6-dihydro-4H-thieno[3,4-c]pyrrol-1-yl)methyl)-2-oxo-2-(4-(1-(trifluoromethyl)cyclopropyl)phenyl)acetamide], for which the “Protein Degradation IKAROS” value on IKAROS was “A (a value no less than 80%)”. In addition, the “Protein Degradation CK1α” value at CK1α was “A (a value no less than 80%)”. Also, the “Protein Degradation GSPT1” value on GSPT1 is on record as “B (a value less than 80% but no less than 50%)”. In addition, the inhibition at 0.1 µM with IL-1β is above 80%; in the data set with IL-6, 25 to 50%; in the data set with TNF-α, above 80%. The inhibition at 1 µM in the data set on IL-1β and in the data set with TNF-α was above 80% each time. The “IL-2 production, fold change over the DMSO control” value in the data set with IL-2 amounted to 3.9 fold. In addition, the cytotoxicity at 1 µM in the data set on MOLM-13 cells is above 80%.
With `CC(C)c1ccc(C(=O)C(=O)NCc2scc3c2CN(C2CCC(=O)NC2=O)C3=O)s1` (stereo not shown) [Compound I-4, N-((5-(2,6-dioxopiperidin-3-yl)-4-oxo-5,6-dihydro-4H-thieno[3,4-c]pyrrol-1-yl)methyl)-2-(5-isopropylthiophen-2-yl)-2-oxoacetamide], at IKAROS, the “Protein Degradation IKAROS” value is “A (a value no less than 80%)”. Further, the “Protein Degradation GSPT1” value at GSPT1 is on record as “C (a value less than 50% but no less than 25%)”. In addition, in the data set on IL-1β, the inhibition at 0.1 µM is above 80% and the inhibition at 1 µM was above 80%. In the data set on TNF-α, this molecule had an inhibition at 0.1 µM above 80% and an inhibition at 1 µM above 80%. Also, in the data set on MOLM-13 cells, the cytotoxicity at 1 µM was above 80%.
As to `O=C1CCC(N2Cc3cc(CNC(=O)C(=O)c4ccc(C5(C(F)(F)F)CC5)cc4)ccc3C2=O)C(=O)N1` (stereo not shown) [Compound I-5, N-((2-(2,6-dioxopiperidin-3-yl)-1-oxoisoindolin-5-yl)methyl)-2-oxo-2-(4-(1-(trifluoromethyl)cyclopropyl)phenyl)acetamide], the “Protein Degradation IKAROS” value at IKAROS was “A (a value no less than 80%)”. At CK1α, the “Protein Degradation CK1α” value is “C (a value less than 50% but no less than 25%)”. The “Protein Degradation GSPT1” value on GSPT1 is recorded as “A (a value no less than 80%)”. Moreover, in the data set on MOLM-13 cells, the cytotoxicity at 1 µM was above 80%.
On to `Cc1ccc(NC(=O)NCc2cc3c(s2)C(=O)N(C2CCC(=O)NC2=O)C3)cc1N(C)C` (stereo not shown) [II-1, 1-(3-(dimethylamino)-4-methylphenyl)-3-((5-(2,6-dioxopiperidin-3-yl)-6-oxo-5,6-dihydro-4H-thieno[2,3-c]pyrrol-2-yl)methyl)urea], for which the “Protein Degradation GSPT1” value at GSPT1 was “B (a value less than 80% but no less than 50%)”. Also, the inhibition at 1 µM in the data set with IL-1β and in the data set on TNF-α was 25 to 50% throughout. In addition, the cytotoxicity at 1 µM in the data set with MOLM-13 cells was above 80%. For the same molecule, in the data set with THLE-2 cells, the IC50 (as a rule, the concentration that inhibits the measured activity by half) turned out to be 8.9 µM.
For `CC(C)(C)c1ccc(NC(=O)NCc2scc3c2CN(C2CCC(=O)NC2=O)C3=O)cc1` (stereo not shown) [II-148, 1-(4-(tert-butyl)phenyl)-3-((5-(2,6-dioxopiperidin-3-yl)-4-oxo-5,6-dihydro-4H-thieno[3,4-c]pyrrol-1-yl)methyl)urea], the cytotoxicity at 1 µM in the data set on MOLM-13 cells was above 80%.
Same read-out and setting: with `O=C(/C=C/c1ccc(C2(C(F)(F)F)CC2)cc1)NCc1ccc2c(c1)CN(C1CCC(=O)NC1=O)C2=O` (stereo not shown) [II-149, (E)-N-((2-(2,6-dioxopiperidin-3-yl)-1-oxoisoindolin-5-yl)methyl)-3-(4-(1-(trifluoromethyl)cyclopropyl)phenyl)acrylamide] the figure was above 80%; with `O=C1CCC(N2Cc3cc(CNC(=O)C(F)(F)c4ccc(C5(C(F)(F)F)CC5)cc4)ccc3C2=O)C(=O)N1` (stereo not shown) [II-164, N-((2-(2,6-dioxopiperidin-3-yl)-1-oxoisoindolin-5-yl)methyl)-2,2-difluoro-2-(4-(1-(trifluoromethyl)cyclopropyl)phenyl)acetamide], above 80%.
The same measure, in the same setting: to `O=C1CCC(N2Cc3c(csc3CNC(=O)C(F)(F)c3ccc(C4(C(F)(F)F)CC4)cc3)C2=O)C(=O)N1` (stereo not shown) [II-165, N-((5-(2,6-Dioxopiperidin-3-yl)-4-oxo-5,6-dihydro-4H-thieno[3,4-c]pyrrol-1-yl)methyl)-2,2-difluoro-2-(4-(1-(trifluoromethyl)cyclopropyl)phenyl)acetamide] belongs below 25%.
Turning to `Cc1ccc(NC(=O)NCc2cc3c(s2)C(=O)N(C2CCC(=O)NC2=O)C3)cc1Cl` (stereo not shown) [reference compound A, reference compound], 0.8 µM corresponded to half-maximal inhibition with THLE-2 cells (IC50).

The values are drawn from US11345712B2, “Protein-targeting compounds and pharmaceutical compositions thereof, and their therapeutic applications” (BioTheryX, Inc., priority 2019, dated 2022).
